ChEMBL document CHEMBL1201862, “PubChem BioAssay data set” (2004)
Calls of active or inactive are those of the source.

Assays:
[1] = target: T1, Oxysterols receptor LXR-beta (Homo sapiens, UniProt P55055); test: LXR agonists, Gal4 luciferase reporter, dose response, counter-screen for ssDAF-12 agonist project, cell-based, luminescence, HEK293, S. stercoralis campaign (AID 720737); type: functional; conditions: read-out: IC50 (the source's name)
T1 sequence (P55055 whole entry): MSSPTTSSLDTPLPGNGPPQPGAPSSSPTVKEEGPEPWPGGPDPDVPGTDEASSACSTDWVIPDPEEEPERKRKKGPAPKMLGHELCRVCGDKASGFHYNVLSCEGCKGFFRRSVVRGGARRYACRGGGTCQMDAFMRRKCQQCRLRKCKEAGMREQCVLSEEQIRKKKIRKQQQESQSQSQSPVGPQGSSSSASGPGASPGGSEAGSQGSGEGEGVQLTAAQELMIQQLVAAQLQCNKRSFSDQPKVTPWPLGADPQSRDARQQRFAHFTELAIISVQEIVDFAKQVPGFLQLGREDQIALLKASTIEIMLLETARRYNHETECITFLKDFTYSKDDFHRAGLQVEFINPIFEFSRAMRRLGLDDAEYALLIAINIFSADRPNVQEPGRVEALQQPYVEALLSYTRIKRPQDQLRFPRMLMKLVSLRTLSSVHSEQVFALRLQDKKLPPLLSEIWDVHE

[2] = Luminescence-based cell-based high throughput dose response assay to identify activators of the DAF-12 from the parasite S. stercoralis (ssDAF-12).; type: functional
[3] = test system: Streptococcus; test: Group A Streptococcus viability loss, dose response, counter-screen for streptokinase expression inhibitor project, luminescence, BacTiterGlo (AID 1915); type: functional, organism-based;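 also: potency for reduction of bacterial viability or growth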
[4] = test system: Streptococcus sp. 'group A'; test: growth inhibition of control SK(-) GAS strain, dose response, counter-screen for streptokinase expression inhibitor project, luminescence, kanamycin, BacTiterGlo, confirmation (AID 1900); type: functional, organism-based
[5] = target: T2, Streptokinase A (Streptococcus pyogenes serotype M1, UniProt P10520); test: S. pyogenes streptokinase expression inhibitors, potency, dose response, plasminogen activation absorbance, OD405 (AID 1914); type: functional, Streptococcus pyogenes M1 GAS;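 also: secreted streptokinase activity via plasminogen activation per viability signal from cell pellet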
T2 sequence (P10520 whole entry): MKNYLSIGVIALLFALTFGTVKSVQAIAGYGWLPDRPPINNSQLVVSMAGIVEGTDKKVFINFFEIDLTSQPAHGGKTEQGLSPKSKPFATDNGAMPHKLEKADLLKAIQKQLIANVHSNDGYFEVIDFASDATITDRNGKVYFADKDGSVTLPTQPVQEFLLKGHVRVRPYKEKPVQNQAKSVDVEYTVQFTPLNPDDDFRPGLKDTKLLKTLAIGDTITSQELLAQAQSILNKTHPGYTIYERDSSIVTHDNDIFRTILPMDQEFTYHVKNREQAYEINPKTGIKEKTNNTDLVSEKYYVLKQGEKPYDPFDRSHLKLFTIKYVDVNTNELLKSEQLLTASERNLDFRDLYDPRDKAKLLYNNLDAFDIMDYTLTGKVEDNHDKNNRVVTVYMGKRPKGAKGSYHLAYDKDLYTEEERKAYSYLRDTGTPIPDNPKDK

[6] = target: Ephrin type-A receptor 4 (Mus musculus, UniProt Q03137); test: inhibitors of EphA4 binding to KYL peptide, primary screen, biochemical, colorimetric, mouse EphA4 (AID 689); type: functional
[7] = A2780 ovarian cancer cell cytotoxicity, dose response, cytotoxicity control, plate reader, dry powder samples (AID 743046); type: functional, cell-based
[8] = NIH:OVCAR-3 ovarian cancer cell cytotoxicity, dose response, PAX8 inhibitor project, plate reader, dry powder samples (AID 743044); type: functional, cell-based
[9] = cytotoxicity in OVCAR8 ovarian cancer cells, dose response, PAX8 project, cell-based, plate reader, dry powder samples (AID 743197); type: functional; conditions: OVCAR-8
[10] = IGROV1 ovarian cancer cell cytotoxicity, dose response, PAX8 inhibitor project, plate reader, dry powder samples (AID 743043); type: functional, cell-based; conditions: IGROV-1
[11] = target: Paired box protein Pax-8 (Homo sapiens, UniProt Q06710); test: inhibitors of PAX8-driven TPO luciferase reporter, dose response, RMG-I cells, cherry-pick (AID 687027); type: functional, cell-based;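 also: luciferase reporter driven by Pax8 target thyroperoxidase promoter measured by SteadyGlo luminescence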
[12] = HeLa 2N DNA content increase, dose response, cell-based, IC50 (AID 1117349); type: functional
[13] = HeLa 4N DNA content increase, dose response, cell-based, IC50 (AID 1117351); type: functional
[14] = target: T3, NADPH oxidase 1 (Homo sapiens, UniProt Q9Y5S8); test: Late-stage luminescence-based cell-based dose response assay to identify inhibitors of NADPH oxidase 1 (NOX1): Synthesized analogs 2.; type: functional
T3 sequence (Q9Y5S8 whole entry): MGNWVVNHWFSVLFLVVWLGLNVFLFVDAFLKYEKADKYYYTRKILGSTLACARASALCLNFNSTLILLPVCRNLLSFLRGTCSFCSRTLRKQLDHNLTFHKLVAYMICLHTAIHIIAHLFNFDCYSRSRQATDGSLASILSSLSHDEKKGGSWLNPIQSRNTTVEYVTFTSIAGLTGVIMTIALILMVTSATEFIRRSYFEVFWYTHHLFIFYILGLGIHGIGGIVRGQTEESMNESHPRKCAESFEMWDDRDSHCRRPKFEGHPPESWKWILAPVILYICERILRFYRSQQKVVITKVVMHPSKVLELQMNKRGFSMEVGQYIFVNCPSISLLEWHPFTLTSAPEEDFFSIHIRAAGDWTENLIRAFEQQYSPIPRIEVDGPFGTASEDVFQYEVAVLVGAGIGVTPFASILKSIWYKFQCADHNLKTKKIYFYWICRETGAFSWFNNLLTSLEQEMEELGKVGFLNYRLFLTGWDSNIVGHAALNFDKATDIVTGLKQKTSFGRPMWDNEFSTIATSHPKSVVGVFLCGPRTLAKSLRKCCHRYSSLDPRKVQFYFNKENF

[15] = target: Protein Tat (Human immunodeficiency virus type 1 group M subtype B (isolate HXB2)(HIV-1), UniProt P04608); type: functional;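 also: tat binding to TAR RNA read out by fluorescence polarization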
[16] = THP-1 cell cytotoxicity, dose response, cytotoxicity control for Vif-APOBEC3G degradation inhibitor project, THP-1 cells (AID 1117359); type: functional; conditions: Human immunodeficiency virus 1, THP-1
[17] = test system: BJ; test: cells; type: functional, cell-based; conditions: Homo sapiens
[18] = target: Glutathione-S-transferase (Schistosoma japonicum, UniProt Q26513); test: biotin-GST/anti-GST TR-FRET signal inhibitors, dose response, artefact control for Vif-APOBEC3G degradation inhibitor project, biochemical (AID 1117362); type: functional
[19] = target: T4, Probable nicotinate-nucleotide adenylyltransferase (Staphylococcus aureus (strain N315), UniProt P65502); type: functional, Staphylococcus aureus subsp. aureus N315; conditions: read-out: IC50_Mean;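 as to IC50 Mean: confirmatory dose-response retesting of NadD inhibitor hits first found in an ultra-high-throughput screen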
[20] = test system: BJ; test: cytotoxicity toward BJ-TERT fibroblasts, dose response, cell-based, RAS-independent, luminescence (AID 1933); type: functional; conditions: Homo sapiens
[21] = cytotoxicity toward DRD oncogenic fibroblasts, dose response, cell-based, non-viral oncogenic, luminescence (AID 1934); type: functional; conditions: Homo sapiens
[22] = target: Glucose-6-phosphate 1-dehydrogenase (Homo sapiens, UniProt P11413); test: human G6PD enzyme inhibitors, dose response, selectivity assay for P. falciparum G6PD inhibitor project, biochemical, fluorescence (AID 504792); type: functional
[23] = target: Nonstructural protein 1 (Influenza A virus, UniProt Q194T2); type: functional, Influenza A virus (A/California/07/2009(H1N1))
[24] = test system: BJ; test: cytotoxicity toward BJ-TERT-LT-ST fibroblasts, dose response, cell-based, RAS-independent, luminescence (AID 1935); type: functional; conditions: Homo sapiens;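 also: BJ fibroblasts immortalized with TERT plus LT and ST oncogenes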
[25] = target: T4, Probable nicotinate-nucleotide adenylyltransferase; type: functional, Staphylococcus aureus subsp. aureus N315
[26] = target: Kallikrein-7 (Homo sapiens, UniProt P49862); test: Fluorescence Intensity-based biochemical primary high throughput dose response assay to identify activators of kallikrein-7 (K7) zymogen.
[27] = Luminescence Cell-Based Dose Response HTS to Identify Activators of Luciferase Translation or Activity in H4 […] Cells. [Related pubchem assays: 1829 (Project Summary), 1814 (Primary HTS)]; type: functional
[28] = Luminescence Cell-Based Dose Confirmation HTS to Identify Activators of 5'UTR Stem-Loop Driven Alpha-Synuclein mRNA Translation in H4 Neuroglioblastoma Cells. [Related pubchem assays: 1829 (Project Summary), 1814 (Primary HTS)]; type: functional
[29] = HepG2 cell cytotoxicity, dose response, cytotoxicity control, ATP luminescence, cherry-pick, set 6 (AID 1053125); type: functional, cell-based
[30] = test system: H4; test: Luminescence Cell-Based Dose Response HTS to Identify Activators of 5'UTR Stem-Loop Driven Prion Protein mRNA Translation in H4 Neuroglioblastoma Cells. [Related pubchem assays: 1829 (Project Summary), 1814 (Primary HTS)]; type: functional; conditions: Homo sapiens
[31] = target: T1, Oxysterols receptor LXR-beta; type: functional, cell-based
[32] = P. falciparum Dd2 blood-stage growth inhibition, dose response, SYBR Green fluorescence, erythrocytes, dry powder, set 2 (AID 1159574); type: functional, cell-based

T4 sequence (P65502 whole entry): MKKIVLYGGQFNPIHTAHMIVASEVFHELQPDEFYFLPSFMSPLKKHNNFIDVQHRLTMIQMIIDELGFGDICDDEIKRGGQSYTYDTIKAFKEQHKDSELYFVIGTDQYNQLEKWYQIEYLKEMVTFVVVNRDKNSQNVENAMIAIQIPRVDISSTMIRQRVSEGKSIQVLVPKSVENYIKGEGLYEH
Paired box protein Pax-8, sequence (Q06710 whole entry): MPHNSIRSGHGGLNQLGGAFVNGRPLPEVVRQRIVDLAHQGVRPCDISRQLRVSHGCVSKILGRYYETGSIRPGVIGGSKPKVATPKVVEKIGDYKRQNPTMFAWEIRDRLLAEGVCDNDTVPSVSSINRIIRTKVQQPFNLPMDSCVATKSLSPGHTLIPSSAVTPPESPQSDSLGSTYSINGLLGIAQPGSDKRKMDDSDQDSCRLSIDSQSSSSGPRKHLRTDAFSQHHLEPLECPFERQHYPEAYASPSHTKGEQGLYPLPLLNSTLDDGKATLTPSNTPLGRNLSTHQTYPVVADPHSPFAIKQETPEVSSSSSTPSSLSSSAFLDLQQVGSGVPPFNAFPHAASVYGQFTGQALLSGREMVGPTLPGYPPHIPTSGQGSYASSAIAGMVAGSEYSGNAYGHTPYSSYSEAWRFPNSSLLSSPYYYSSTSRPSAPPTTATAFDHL
Glutathione-S-transferase, sequence (Q26513 whole entry): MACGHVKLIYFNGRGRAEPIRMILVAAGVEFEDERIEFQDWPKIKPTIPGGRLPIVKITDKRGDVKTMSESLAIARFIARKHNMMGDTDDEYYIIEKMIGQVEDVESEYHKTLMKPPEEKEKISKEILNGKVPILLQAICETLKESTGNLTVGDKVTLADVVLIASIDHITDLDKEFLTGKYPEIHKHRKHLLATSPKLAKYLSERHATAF
Ephrin type-A receptor 4, sequence (Q03137 whole entry): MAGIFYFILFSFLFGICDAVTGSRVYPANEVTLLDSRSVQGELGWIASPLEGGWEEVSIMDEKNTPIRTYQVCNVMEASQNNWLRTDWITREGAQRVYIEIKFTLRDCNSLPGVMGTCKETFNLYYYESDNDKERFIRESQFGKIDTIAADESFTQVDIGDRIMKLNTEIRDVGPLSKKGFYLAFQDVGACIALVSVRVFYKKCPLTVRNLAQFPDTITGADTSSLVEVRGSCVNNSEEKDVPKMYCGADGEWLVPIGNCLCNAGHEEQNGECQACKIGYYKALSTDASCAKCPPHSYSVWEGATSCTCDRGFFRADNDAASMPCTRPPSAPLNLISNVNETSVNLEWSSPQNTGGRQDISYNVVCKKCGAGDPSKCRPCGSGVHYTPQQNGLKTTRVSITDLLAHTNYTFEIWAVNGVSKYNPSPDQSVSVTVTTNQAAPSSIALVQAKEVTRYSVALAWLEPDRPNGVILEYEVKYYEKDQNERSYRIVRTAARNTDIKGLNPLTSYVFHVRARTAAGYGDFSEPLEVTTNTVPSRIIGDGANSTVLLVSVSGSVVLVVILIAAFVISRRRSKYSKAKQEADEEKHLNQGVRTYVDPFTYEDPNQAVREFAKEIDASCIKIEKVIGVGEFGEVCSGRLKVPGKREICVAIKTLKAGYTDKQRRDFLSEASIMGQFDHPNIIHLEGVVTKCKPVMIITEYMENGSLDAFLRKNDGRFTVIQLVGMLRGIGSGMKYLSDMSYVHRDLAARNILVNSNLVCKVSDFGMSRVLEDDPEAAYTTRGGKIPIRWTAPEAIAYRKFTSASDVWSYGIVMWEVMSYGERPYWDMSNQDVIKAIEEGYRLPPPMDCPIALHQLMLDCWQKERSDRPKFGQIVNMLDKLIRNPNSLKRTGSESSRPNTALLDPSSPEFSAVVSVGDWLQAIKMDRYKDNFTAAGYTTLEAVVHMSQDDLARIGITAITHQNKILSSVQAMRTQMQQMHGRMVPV
Glucose-6-phosphate 1-dehydrogenase, sequence (P11413 whole entry): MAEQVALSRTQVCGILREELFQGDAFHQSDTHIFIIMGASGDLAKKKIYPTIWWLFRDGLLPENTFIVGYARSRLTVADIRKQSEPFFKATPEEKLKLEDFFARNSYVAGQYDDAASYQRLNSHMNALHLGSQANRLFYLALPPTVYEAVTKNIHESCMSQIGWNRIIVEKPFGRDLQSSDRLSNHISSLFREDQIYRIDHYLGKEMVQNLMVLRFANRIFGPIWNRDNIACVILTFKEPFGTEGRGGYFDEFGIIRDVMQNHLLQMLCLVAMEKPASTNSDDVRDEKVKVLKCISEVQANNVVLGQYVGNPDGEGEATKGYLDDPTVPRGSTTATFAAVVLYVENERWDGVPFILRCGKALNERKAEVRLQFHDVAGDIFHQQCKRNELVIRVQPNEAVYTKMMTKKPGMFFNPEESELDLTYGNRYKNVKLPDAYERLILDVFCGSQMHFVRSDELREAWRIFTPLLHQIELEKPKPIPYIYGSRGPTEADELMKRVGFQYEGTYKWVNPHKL
Kallikrein-7, sequence (P49862 whole entry): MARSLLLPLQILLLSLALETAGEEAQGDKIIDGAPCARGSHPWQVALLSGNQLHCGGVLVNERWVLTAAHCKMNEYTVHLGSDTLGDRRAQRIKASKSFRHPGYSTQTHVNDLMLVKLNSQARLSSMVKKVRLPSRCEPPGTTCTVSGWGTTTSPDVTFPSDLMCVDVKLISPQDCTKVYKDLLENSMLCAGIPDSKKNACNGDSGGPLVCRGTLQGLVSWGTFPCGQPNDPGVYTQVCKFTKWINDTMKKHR
Nonstructural protein 1, sequence (Q194T2 whole entry): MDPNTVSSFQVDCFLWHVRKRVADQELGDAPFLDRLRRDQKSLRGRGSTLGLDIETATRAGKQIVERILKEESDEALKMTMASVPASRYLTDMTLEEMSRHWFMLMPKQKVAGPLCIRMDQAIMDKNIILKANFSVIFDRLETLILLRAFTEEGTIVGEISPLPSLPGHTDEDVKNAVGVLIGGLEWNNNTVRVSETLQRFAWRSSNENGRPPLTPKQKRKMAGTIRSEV
Protein Tat, sequence (P04608 whole entry): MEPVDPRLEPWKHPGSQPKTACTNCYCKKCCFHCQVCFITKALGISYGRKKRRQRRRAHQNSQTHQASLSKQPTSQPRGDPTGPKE

**Q.** Which EC50 [1] does the source give for `NC(=O)c1ccccc1NC(=O)c1ccc2ccccc2c1` here?
**A.** Its EC50 is > 67.6 µM (inactive).

**Q.** And the IC50 [2]?
**A.** Its IC50 is > 67.6 µM (inactive).

**Q.** For `CCC(C)COC(=O)C(C#N)c1nc2ccccc2nc1N1CCCCC1` (centres undefined), which EC50 [3] is on record?
**A.** The EC50 was 150 µM (active).

**Q.** What about the EC50 [4] of the same molecule?
**A.** Its EC50 is 41.9 µM (active).

**Q.** What about the EC50 [5] of the same molecule?
**A.** The EC50 was > 150 µM (not active).

**Q.** What about the IC50 [6] of the same molecule?
**A.** Its IC50 is 17.5 µM (active).

**Q.** What does the source list for `C[C@@H]1CCCCO[C@H](CN(C)Cc2ccc(C(F)(F)F)cc2)[C@H](C)CN([C@H](C)CO)C(=O)c2cc(NS(=O)(=O)c3ccc(Cl)cc3)ccc2O1`?
**A.** AC50 [7]: 39 µM (active); AC50 [8]: 12.7 µM (active); AC50 [9]: 15.9 µM (active); AC50 [10]: 34.6 µM (active); AC50 [11]: 5.45 µM (active)

**Q.** Which IC50 [12] does the source give for `Cc1cc(CC(C)CC(C)(C)C)n(O)c(=O)c1` (centres undefined) [PIROCTONE] here?
**A.** The IC50 was > 10 µM (inactive).

**Q.** What about the IC50 [13] of the same molecule?
**A.** Its IC50 is > 10 µM (inactive).

**Q.** For `CN1c2ccccc2Sc2cc(NC(=O)c3ccc(C(=O)c4ccccc4)cc3)ccc21`, which IC50 [14] is on record?
**A.** Its IC50 is > 50 µM (not active).

**Q.** For `CCN1/C(=C/C=C/C=C/C=C/c2sc3ccccc3[n+]2CC)Sc2ccccc21`, which IC50 [15] is on record?
**A.** Its IC50 is > 100 µM (active).

**Q.** And the CC50 [16]?
**A.** Its CC50 is 1.26 µM (active).

**Q.** And the EC50 [17]?
**A.** Its EC50 is 17.8 µM (active).

**Q.** And the IC50 [18]?
**A.** Its IC50 is 3.88 µM (active).

**Q.** What about the IC50 [19] of the same molecule?
**A.** The IC50 was 27 µM (active).

**Q.** And the EC50 [20]?
**A.** Its EC50 is 3.21 µM (active).

**Q.** What about the EC50 [21] of the same molecule?
**A.** The EC50 was 10.6 µM (active).

**Q.** And the IC50 [22]?
**A.** The IC50 was > 80 µM (inactive).

**Q.** And the IC50 [23]?
**A.** Its IC50 is 5.73 µM (active).

**Q.** What about the EC50 [24] of the same molecule?
**A.** The EC50 was 11.8 µM (inconclusive).

**Q.** And the IC50 [25]?
**A.** Its IC50 is 19.8 µM (active).

**Q.** Which EC50 [26] does the source give for `Cc1cccn2c(=O)c3cc(C#N)/c(=N/C(=O)c4ccccc4)n(Cc4ccco4)c3nc12` here?
**A.** The EC50 was 7.95 µM (active).

**Q.** Which results are given for `Cc1cc(-c2nc3cccnc3s2)ccc1NS(=O)(=O)c1cccs1`?
**A.** EC50 [27]: 30.8 µM (active); EC50 [28]: 9.73 µM (active); AC50 [29]: 7.51 µM (active); EC50 [30]: 0.197 µM (active); EC50 [31]: > 67.5 µM (inactive)

**Q.** Which AC50 [32] does the source give for `COc1ccc(NC(=O)N2CCCCN3[C@H](CO)[C@H](c4ccc(C#Cc5ccccc5)cc4)[C@H]3C2)cc1` here?
**A.** The AC50 was 3.22 µM (active).

**Q.** What about the AC50 [10] of the same molecule?
**A.** Its AC50 is 46.7 µM (active).

**Q.** And the AC50 [11]?
**A.** The AC50 was 23.2 µM (active).
